From patent US20250101032A1, “EXATECAN DERIVATIVES AND ANTIBODY-DRUG CONJUGATES THEREOF” (priority 2021, published 2025)
≈ marks a conversion by molar mass, not a printed value. Like-named read-outs stand apart in the source and are kept apart here.

Legend:
physchem = conditions: 25 °C, pH 7.4, aqueous buffer, kinetic from dmso stock
Description: In-vitro kinetic solubilities of the compounds in PBS pH 7.4 buffer at 25° C. were determined by diluting compounds from 100% dimethyl sulfoxide (DMSO) into PBS buffer and measuring absorbance at 490, 590 and 650 nm. Stock concentrations in 100% DMSO were provided at 1-6 mM in 100% DMSO. Kinetic solubilities were determined by diluting test compounds from 100% DMSO into PBS pH 7.4 buffer, as duplicate, 10 point 2-fold serial dilution starting at 100× dilution of stock DMS solution into PBS buffer in a clear, flat bottom polystyrene assay plates. Total assay volume was 200 microliters. Solutions were mixed by plate shaking, incubated for 30 m at 25° C., and absorbance was read at 490, 590 and 650 nm. […] in PBS buffer was used as a blank. For each test compound, average optical density (GD) at each concentration was determined by averaging the blank corrected sum of absorption at 490 nm, 590 nm and 650 nm, over duplicate measurements. Turbidity threshold optical density value was set as a sum of mean plus two standard deviations of the mean of absorbances at 490, 590 and 650 nm for 1% (v/v) DMSO in PBS pH 7.4 buffer. Highest soluble concentration (micromolar) corresponded to the highest concentration at which average optical density was below optical density value set for turbidity threshold (Table 4). Amiodarone and propranolol were used as low and high solubility controls respectively.

SKBR3 = assay: In vitro cytotoxicity assay (CellTiter-Glo), SKBR3; format: cell-based, Human; conditions: read-out: Cytotoxicity IC50
Description: (§1) Human tumor cell lines, SK-BR-3, NCI-H292, HT-29, MCF-7, NCI-N87, and FaDu were obtained from ATCC. NCI-H292, HT-29, MCF-7, and NCI-N87 cells were cultured in RPMI-1640 media (Gibco, Life Technologies) supplemented with 10% v/v heat inactivated FBS (Corning), FaDu cells were maintained in DMEM media (Gibco, Life Technologies) supplemented with 10% v/v heat inactivated FBS (Corning). SK-BR-3 cells were maintained in McCoys 5A medium (Gibco, Life Technologies) supplemented with 10% […] heat inactivated FBS (Corning) at 37° C. in a humidified incubator containing 5% CO2.
(§2) Lyophilized compounds were dissolved in 100% dry DMSO, aliquots frozen and stored at −80° C. Concentration and purity of compound stock solutions in DMSO were determined by RP-HPLC Agilent 1100 platform with 1200 DAD and SofTA ELSD detectors, and the Agilent 6150 MS system (UV/VIS, ELSD purity and MS compound identity confirmation). Shimadzu 3.0 mm×30 mm XR ODS 2.2 μm column was run at 50° C., 1.5 mL/min. Solvent A: 0.1% Formic acid in water, Solvent B: 0.08% Formic acid in methanol-Gradient: 5%-100% B in 3.0 min, 100% solvent B for 0.3 min. Concentration of compounds in 100% DMSO determined by ELS ranged from 1-6 mM.
(§3) Cells were plated in 96-well white flat-bottomed plates (Corning) at 2.0×10^3 cells per well in 100 μL culture medium. After incubation for 24 hours, test compounds were added at a range of concentrations as ten point serial dilution as duplicates or triplicates. Following further incubation for 6 days 37° C., 5% CO2, cell viability was assessed with the use of a CellTiter-Glo Luminescent Cell Viability Assay (Promega). Luminescence was measured using the GloMax instrument (Promega). […] For a subset of payloads, each treatment was independently repeated two to eight times, and IC50 values were averaged. […] Standard deviation (stdev) is shown as (N/A) for treatment performed once.

HT29 = assay: In vitro cytotoxicity assay (CellTiter-Glo), HT29; format: cell-based, Human; conditions: read-out: Cytotoxicity IC50
Description: as §1, §2, §3

NCI-H292 = assay: In vitro cytotoxicity assay (CellTiter-Glo), NCI-H292; format: cell-based, Human; conditions: read-out: Cytotoxicity IC50
Description: as §1, §2, §3

MCF7 = assay: In vitro cytotoxicity assay (CellTiter-Glo), MCF7; format: cell-based, Human; conditions: read-out: Cytotoxicity IC50
Description: as §1, §2, §3

NCI-N87 = assay: In vitro cytotoxicity assay (CellTiter-Glo), NCI-N87; format: cell-based, Human; conditions: read-out: Cytotoxicity IC50
Description: as §1, §2, §3

FaDu = assay: In vitro cytotoxicity assay (CellTiter-Glo), FaDu; format: cell-based, Human; conditions: read-out: Cytotoxicity IC50
Description: as §1, §2, §3

SKOV3 = assay: In vitro cytotoxicity assay (CellTiter-Glo), SKOV3; format: cell-based; conditions: read-out: Cytotoxicity IC50
Description: (§4) Lyophilized compounds were dissolved in 100% dry DMSO, aliquots frozen and stored at −80° C. […] Shimadzu 3.0 mm×30 mm XR ODS 2.2 μm column was run at 50° C., 1.5 mL/min. Solvent A: 0.1% Formic acid in water, Solvent B: 0.08% Formic acid in methanol-Gradient: 5%-100% B in 3.0 min, 100% solvent B for 0.3 min.
as §3

BXPC3 = assay: In vitro cytotoxicity assay (CellTiter-Glo), BXPC3; format: cell-based; conditions: read-out: Cytotoxicity IC50
Description: as §4, §3

Molecule | solubility at 30 min (physchem) [µM] | IC50 (SKBR3; Homo sapiens, SK-BR-3, 144 h) [µM] | IC50 (HT29; Homo sapiens, HT-29, 144 h) [µM] | IC50 (NCI-H292; Homo sapiens, NCI-H292, 144 h) [µM] | IC50 (MCF7; Homo sapiens, MCF7, 144 h) [µM] | IC50 (NCI-N87; Homo sapiens, NCI-N87, 144 h) [µM] | IC50 (FaDu; Homo sapiens, FaDu, 144 h) [µM] | IC50 (SKOV3; Homo sapiens, SK-OV-3, 144 h) [µM] | IC50 (BXPC3; Homo sapiens, BXPC-3, 144 h) [µM] | IC50 (SKBR3; SKBR3 cells, 6 days incubation, mean of IC50 values) [µM] | IC50 (HT29; HT29 cells, 6 days incubation, mean of IC50 values) [µM] | IC50 (NCI-H292; NCI-H292 cells, 6 days incubation, mean of IC50 values) [µM] | IC50 (MCF7; MCF7 cells, 6 days incubation, mean of IC50 values) [µM] | IC50 (NCI-N87; NCI-N87 cells, 6 days incubation, mean of IC50 values) [µM] | IC50 (FaDu; FaDu cells, 6 days incubation, mean of IC50 values) [µM] | IC50 (SKOV3; SKOV3 cells, 6 days incubation, mean of IC50 values) [µM] | IC50 (BXPC3; BXPC3 cells, 6 days incubation, mean of IC50 values) [µM]
CC[C@@]1(O)C(=O)OCc2c1cc1n(c2=O)Cc2c-1nc1cc(F)c(C)c3c1c2[C@@H](NC(=O)[C@@H]1C[C@H]1CO)CC3 (single isomer, unassigned) [Compound 111-A] | 23 (≈ 12.3 µg/mL) | 0.006 | 0.0344 | 0.018 | 0.0167 | 0.0131 | 0.0019 | 0.0245 | 0.0056 |  |  |  |  |  |  |  | 
CC[C@@]1(O)C(=O)OCc2c1cc1n(c2=O)Cc2c-1nc1cc(F)c(C)c3c1c2[C@@H](Nc1c(NCCO)c(=O)c1=O)CC3 [Compound 2] | 15 (≈ 8.62 µg/mL) | 0.0754 | 0.18 | 0.096 | 0.0414 | 0.111 | 0.0234 | 0.124 | 0.0298 |  |  |  |  |  |  |  | 
CC[C@@]1(O)C(=O)OCc2c1cc1n(c2=O)Cc2c-1nc1cc(F)c(C)c3c1c2[C@@H](NC(=O)CC(=O)NCCO)CC3 [Compound 12] | 17 (≈ 9.6 µg/mL) | 0.0305 | 0.318 | 0.0686 | 0.0439 | 0.092 | 0.0164 | 0.151 | 0.0456 |  |  |  |  |  |  |  | 
CC[C@@]1(O)C(=O)OCc2c1cc1n(c2=O)Cc2c-1nc1cc(F)c(C)c3c1c2[C@@H](NC(=O)CCC(=O)NCCO)CC3 [Compound 16] | 22 (≈ 12.7 µg/mL) | 0.166 | 1.14 | 0.29 | 0.14 | 0.736 | 0.072 | 0.341 | 0.149 |  |  |  |  |  |  |  | 
CC[C@@]1(O)C(=O)OCc2c1cc1n(c2=O)Cc2c-1nc1cc(F)c(C)c3c1c2[C@@H](Nc1c(NC(CO)(CO)CO)c(=O)c1=O)CC3 [Compound 18] | 13 (≈ 8.25 µg/mL) | 0.0657 | 0.179 | 0.0821 | 0.0407 | 0.158 | 0.0429 | 0.167 | 0.0449 |  |  |  |  |  |  |  | 
CC[C@@]1(O)C(=O)OCc2c1cc1n(c2=O)Cc2c-1nc1cc(F)c(C)c3c1c2[C@@H](NC(=O)OCCO)CC3 [Compound 22] | 23 (≈ 12 µg/mL) | 0.0012 | 0.0057 | 0.0027 | 0.0023 | 0.0026 | 0.0007 | 0.0019 | 0.0007 |  |  |  |  |  |  |  | 
CC[C@@]1(O)C(=O)OCc2c1cc1n(c2=O)Cc2c-1nc1cc(F)c(C)c3c1c2[C@@H](NC(=O)NCCO)CC3 [Compound 42] | 8 (≈ 4.18 µg/mL) | 0.0052 | 0.0102 | 0.0024 | 0.0118 | 0.012 | 0.0029 | 0.0195 | 0.0056 |  |  |  |  |  |  |  | 
CC[C@@]1(O)C(=O)OCc2c1cc1n(c2=O)Cc2c-1nc1cc(F)c(C)c3c1c2[C@@H](NC(=O)NC(CO)(CO)CO)CC3 [Compound 48] | 28 (≈ 16.3 µg/mL) | 0.0126 | 0.0636 | 0.0271 | 0.0118 | 0.043 | 0.0028 | 0.0778 | 0.0203 |  |  |  |  |  |  |  | 
CC[C@@]1(O)C(=O)OCc2c1cc1n(c2=O)Cc2c-1nc1cc(F)c(C)c3c1c2[C@@H](NC(=O)c1cn(CCO)nn1)CC3 [Compound 52] | 25 (≈ 14.4 µg/mL) | 0.0025 | 0.0233 | 0.0068 | 0.0059 | 0.0101 | 0.0042 | 0.0129 | 0.0034 |  |  |  |  |  |  |  | 
CC[C@@]1(O)C(=O)OCc2c1cc1n(c2=O)Cc2c-1nc1cc(F)c(C)c3c1c2[C@@H](NC(=O)Cc1cn(CCO)nn1)CC3 [Compound 66] | 21 (≈ 12.4 µg/mL) | 0.0073 | 0.0781 | 0.0247 | 0.0239 | 0.03 | 0.0079 | 0.0433 | 0.0098 |  |  |  |  |  |  |  | 
CC[C@@]1(O)C(=O)OCc2c1cc1n(c2=O)Cc2c-1nc1cc(F)c(C)c3c1c2[C@@H](NC(=O)C1OC(O)C(O)C1O)CC3 (stereo partly shown) [Compound 100] | 29 (≈ 16.9 µg/mL) | 0.036 | 0.0934 | 0.228 | 0.0288 | 0.0786 | 0.007 | 0.0905 | 0.0269 |  |  |  |  |  |  |  | 
CC[C@@]1(O)C(=O)OCc2c1cc1n(c2=O)Cc2c-1nc1cc(F)c(C)c3c1c2[C@@H](NC(=O)c1ccc(CO)o1)CC3 [Compound 103] | 7 (≈ 3.92 µg/mL) | 0.0069 | 0.0144 | 0.006 | 0.0046 | 0.0172 | 0.0015 | 0.0265 | 0.0064 |  |  |  |  |  |  |  | 
CC[C@@]1(O)C(=O)OCc2c1cc1n(c2=O)Cc2c-1nc1cc(F)c(C)c3c1c2[C@@H](NCCO)CC3 [Compound 105] | 25 (≈ 12 µg/mL) | 0.0009 | 0.0021 | 0.0017 | 0.0014 | 0.0016 | 0.0013 | 0.0018 | 0.0006 |  |  |  |  |  |  |  | 
CC[C@@]1(O)C(=O)OCc2c1cc1n(c2=O)Cc2c-1nc1cc(F)c(C)c3c1c2[C@@H](NCc1cn(CCO)nn1)CC3 [Compound 108] | 10 (≈ 5.61 µg/mL) | 0.0029 | 0.0132 | 0.0081 | 0.0044 | 0.0083 | 0.0024 | 0.0066 | 0.0023 |  |  |  |  |  |  |  | 
CC[C@@]1(O)C(=O)OCc2c1cc1n(c2=S)Cc2c-1nc1cc(F)c(C)c3c1c2[C@@H](NC(=S)CO)CC3 [Compound 148] | 3 (≈ 1.58 µg/mL) | 0.0003 | 0.0009 | 0.0011 | 0.0001 | 0.0002 |  | 0.0002 | 0.0001 |  |  |  |  |  |  |  | 
SN-38 |  |  |  |  |  |  |  |  |  | 0.0018 | 0.0051 | 0.0025 | 0.0043 | 0.0042 | 0.0022 | 0.0032 | 0.0005
